# Reference: patent EP2265599B1, “CRYSTAL FORM OF PHENYLAMINOPYRIMIDINE DERIVATIVE” (Natco Pharma Limited, priority 2008, dated 2009)
# Columns and labels:
# [1] = test system: 4910; assay: Matrigel invasion assay (modified Boyden chamber), 4910; type: cell-based, human; settings: cells treated 48 h
# Description: (§1) The in vitro invasiveness of 4910, 5310 and U87 glioma cells and MDAMB231 and ZR71 breast cancer cells in the presence of specified concentrations of compounds were assessed using a modified Boyden chamber assay. Cells were treated with these compounds for 48 h. 1x10^6 cells were suspended in 600µl of serum-free medium supplemented with 0.2% BSA and placed in the upper compartment of the transwell chambers (Coming Costar Fischer Scientific Cat #07-200-158, Pittsburgh PA) coated with Matrigel (0.7 mg/ml). The lower compartment of the chamber was filled with 200 µl of serum medium and the cells were allowed to migrate for 24 h. After incubation, the cells were fixed and stained with Hema-3 and quantified as previously described (Mohanam et al. 1993). The migrated cells were imaged microscopically to determine the reduction in invasiveness induced by the compounds of this invention.
# (§2) The in vitro invasiveness of 4910, 5310 and U87 glioma cells and MDAMB231 and ZR71 breast cancer cells in the presence of specified concentrations of compounds were assessed using a modified Boyden chamber assay. Cells were treated with these compounds for 48 h.
# [2] = test system: 5310 cells; assay: In vitro angiogenic assay (conditioned media on human dermal endothelial cells), 5310; type: cell-based; settings: control conditions and after radiation
# Description: The in vitro angiogenesis of 4910, 5310 and U87 glioma cells and MDAMB231 and ZR71 breast cancer cells in the presence of specified concentrations of compounds were determined as follows, cells (2x10^4/well) were seeded in 8-well chamber slides and were treated with various concentrations of test compounds. After a 24 h incubation period, the conditioned media was removed and added to a 4x 10^4 human dermal endothelial cell (monolayer in 8-well chamber slides) and the human dermal endothelial cells were allowed to grow for 72 h. Cells were then fixed in 3.7% formaldehyde and stained with H&E and photographed.
# [3] = test system: Baf3T315I; assay: In vivo anti-leukemic activity, blast cell count in blood smears, Baf3T315I implanted nude mice; settings: Imatinib 10mg/kg, AN019 20mg/kg, AN024 20mg/kg, oral gavage or ip from day 15; up to day 42
# Source text: (§3) Blood smears were obtained via the tail vein or via the femoral vein every 6th day and blast cells counted and graphically represented.
# (§4) Abdominal swelling and decrease in activity was monitored daily, blood smear taken via the tail vein or the femoral vein every 6th day and H&E stained as per standard protocols. 42 days after implantation, mice were sacrificed and spleens harvested.
# (§5) Nude mice were intraperitoneally implanted with Baf3 mutant cells (wt, T315I, M351T or E255K). […] Blood was drawn from the femoral vein or tail vein every 6th day and blast cell count determined and graphically represented.
# [4] = test system: K5621uc cells; assay: Drug temporal penetrance (Tp) after stopping drug treatment; type: in vivo, nude mice; settings: AN019 20mg/kg, AN024 20mg/kg, Imatinib 10mg/kg, daily ip from day 15, stopped on day 35, imaged till day 45
# Description: The temporal penetrance was calculated applying the following equation, Tp=. (((P)/(n))a -((P)/(n))ter)/(((P)/(n))a -((P)/(n))b) [formula]
# Where: • P=photon counts at day 'a', day 'ter', or day 'b' where 'a' is the day when drug treatment was stopped and 'ter' is the day when the experiment was terminated and 'b' is the day where P is minimum after day a but before day 'ter'. • n=number of animals alive when P was measured.
# The animals were imaged at 6 day intervals post transplantation. […] Drug treatment was stopped on day 35 and animals were imaged till day 45, and calculated as described in methods.
# [5] = test system: 5310; assay: Matrigel invasion assay (modified Boyden chamber), 5310; type: cell-based; settings: cells treated 48 h
# Description: as §1, §2
# [6] = test system: K562 cells; assay: Anti-CML activity in nude mice implanted with K562 cells (leukemia growth index, LGI)
# [7] = test system: K562 luc human leukemia cells; assay: Low dose oral treatment of nude mice implanted with K562 luc cells (luciferase expression); type: in vivo; settings: oral administration
# Description: Nude mice (nu/nu) were implanted with K562 cells (1x106) normal/luc via tail vein. Five mice were used per group and divided into 24 groups + 2 control. All groups were implanted with K562 normal/luc cells. Of the 24 groups, 12 were used for luciferase studies whereas the other 12 were used for blood smear count studies.
# Drugs were administered by oral gavage (2% gum acacia and 2% SLS in an aqueous suspension).
# [8] = test system: U87; assay: Matrigel invasion assay (modified Boyden chamber), U87; type: cell-based; settings: cells treated 48 h
# Description: as §1, §2
# [9] = test system: K562 luc human leukemia cells; assay: Drug effectiveness (De) from in vivo luciferase studies; parameters: species or system nude mice
# Source text: [formula] Where: • Σalive = total number of mice alive per concentration at the end of experiment times photon count, Eluc = total number of mice alive showing luciferase expression per concentration at end of experiment and c represents control untreated animals times photon count and ∑c-initial represents the initial number of animals in control at start of experiment times photon count.
# [10] = test system: K562 luciferase expressing cells; assay: Leukemic survival study, K562 luciferase expressing cells implanted intraperitoneally; type: in vivo, nude mice
# [11] = test system: MDA-MB-231; assay: Matrigel invasion assay (modified Boyden chamber), MDA-MB-231; type: cell-based; settings: cells treated 48 h
# Description: as §1, §2
# [12] = test system: ZR-71; assay: Matrigel invasion assay (modified Boyden chamber), ZR-71; type: cell-based; settings: cells treated 48 h
# Description: as §1, §2
# [13] = test system: ZR71; assay: Western blot analysis for AKT, ERK and Pi3k, ZR71; type: cell-based
# Description: Western blot analysis of 4910, 5310 and U87 glioma cells and MDAMB231 and ZR71 breast cancer cells in the presence of specified concentrations of compounds were assessed as per standard protocols. Cells were treated with AN019, AN024 or Temozolomide at the specified concentrations. 24h after treatment, cells were collected and cell lysates extracted. Equal quantities of proteins were fractionated by SDS-PAGE. The fractionated proteins were blotted on to nylon membranes and immunoprobed for AKT, ERK and Pi3k. Breast cancer cell protein isolates were additionally immunoprobed for EGFR, ErbB1, ErbB2 and ErbB3.
# [14] = test system: Baf3M351T; assay: In vivo anti-leukemic activity, blast cell count in blood smears, Baf3M351T implanted nude mice; settings: Imatinib 10mg/kg, AN019 20mg/kg, AN024 20mg/kg, oral gavage or ip from day 15; up to day 42
# Source text: as §3, §4, §5
smiles,measurement,setting,value
"Cc1ccc(NC(=O)c2cc(C(F)(F)F)cc(C(F)(F)F)c2)cc1Nc1nccc(-c2cccnc2)n1 [AN019, (3,5-bis trifluoromethyl)-N-[4-methyl-3-(4-pyridin-3yl-pyrimidin-2ylamino)-phenyl]-benzamide]",+Radiation % Invasion,"[1]; 4910, with radiation",15%
same,-Radiation % Invasion,"[1]; 4910, without radiation",42%
same,inhibition of angiogenesis,[2],inhibition of angiogenesis was greater in control conditions than after radiation treatment
same,blast cell count in blood smears,[3],significant decrease in blast cell count
same,Tp (temporal penetrance),[4],2.0
same,+Radiation % Invasion,"[5]; 5310, with radiation",6%
same,-Radiation % Invasion,"[5]; 5310, without radiation",5%
same,"physiological, phenotypic or behavioral abnormality","[6]; K562 implanted nude mice, ip 10mg/kg","no abnormal physiological, phenotypic or behavioral abnormality"
same,LGI after initiation of drug treatment (time course),"[6]; daily ip injections of 10mg/kg from day 15, blood drawn every 6th day",steady decline in LGI
same,luciferase expression,[7]; 1mg/kg,did not induce a decrease in luciferase expression
same,luciferase expression,[7]; 5mg/kg,caused fixation of leukemia cells at constant expression levels
same,luciferase expression,[7]; 10mg/kg,caused a decrease in luciferase expression
same,luciferase expression,[7]; 20mg/kg,caused a decrease in luciferase expression
same,+Radiation % Invasion,"[8]; U87, with radiation",18%
same,-Radiation % Invasion,"[8]; U87, without radiation",18%
same,De (drug effectiveness),[9]; 5mg/kg,25.82%
same,De (drug effectiveness),[9]; 10mg/kg,78.20%
same,De (drug effectiveness),[9]; 20mg/kg,83.40%
same,De (drug effectiveness),[9]; 40mg/kg,85.20%
same,curative effect after withdrawal of drug treatment (animals cured at day 58),"[10]; drug treatment stopped at day 42, based on luminescence (Fig. 20)",continued to show curative effect
same,Blast cell count from blood smears after withdrawal of drug treatment,[10]; drug treatment withdrawn on day 42 (Fig. 21),showed effectiveness after withdrawal of drug treatment
same,mortality,"[10]; treatment from day 15 till day 42, then withdrawn, AN024 death determined to be other than leukemia",did not show any mortality
same,animals showing no signs of leukemia / complete absence of leukemic symptoms,"[10]; treatment from day 15 till day 42, then withdrawn, AN024 on day 55",7 of the 10 animals
same,+Radiation % Invasion,"[11]; MDA-MB-231, with radiation",15%
same,-Radiation % Invasion,"[11]; MDA-MB-231, without radiation",45%
same,+Radiation % Invasion,"[12]; ZR-71, with radiation",19%
same,-Radiation % Invasion,"[12]; ZR-71, without radiation",33%
same,PI3k levels,"[13]; ZR71 (cell line by context), with and without radiation",absent in AN019 treatments both with and without radiation
same,AKT levels,"[13]; ZR71, unirradiated and after radiation","decrease in AKT levels, which was enhanced after radiation"
same,blast cell count in blood smears,[14],significant decrease in blast cell count
